“Also recorded” adds a separate entry of the source.
Assays:
Type in all cases: in vivo, male C57BL/6JRj mice
DIO-NASH mice [1] = experiment: EchoMRI body composition (MRI body weight, fat, lean and free water mass); details: for Absolute fat tissue mass at week 11 / Absolute free water mass at week 11 / MRI body weight at week 11 / Relative fat tissue mass at week 11 / Relative lean tissue mass at week 11 / Relative free water mass (% of body weight): group mean, week 11
Description: The body composition of the mice was assessed by an EchoMRI 3-1 Body composition analyzer (EchoMRI, US). Non-anaesthetised mice was placed in a plastic tube inside the MRI scanner for approximately 80 seconds. The body composition is expressed as fat mass, fat free mass (lean mass) and water.

DIO-NASH mice [2] = experiment: Intraperitoneal insulin tolerance test (IPITT), week 10; parameters: Area under the curve 0-180 min IPITT (blood glucose): unit not given here; details: for Area under the curve 0-180 min IPITT (blood glucose): week 10, 6 h fasted, i.p. insulin 0.5 U/kg, group mean
Description: Mice were fasted 6 hours prior to intraperitoneal insulin administration (0.5 Unit/kg, rapid acting insulin NovoRapid). At the various time points after insulin administration, blood samples were collected into heparinized glass capillary tubes and immediately suspended in glucose/lactate system solution buffer (EKF-diagnostics, Germany). Blood glucose (BG) was measured using a BIOSEN c-Line glucose meter (EKF-diagnostics, Germany) according to the manufacturer's instructions. After the last blood sample, the animals were returned to the normal feeding schedule. The order of the animals was randomized before the procedure and mice were dosed with compounds just after the −60 minutes blood sample.
Intraperitoneal insulin tolerance test (IPITT) in week 10. Left: Temporal course of blood glucose levels during 6 h fasted IPITT. Intraperitoneal insulin bolus (0.5 U/kg) at t=0 min.
Area under the curve calculated from the temporal course from 0-180 min PITT Values expressed as mean of n=12-14+SEM.

DIO-NASH mice [3] = experiment: Plasma alanine transaminase (ALT) at termination; details: for Plasma alanine transaminase (ALT) at termination: group mean
Description: (§1) For plasma biochemistry, tail blood was drawn directly through the capillary of a Microvette/Vacuette of the right dimension and anticoagulant and mixed by inversion 5 times. Blood was placed at 4° C. until centrifugation at 3000×g for 10 minutes at 4° C. The plasma supernatants were transferred to new tubes and immediately frozen on dry ice and stored at −80° C. until analysis.
(§2) Mouse insulin was measured in single determinations using the MSD platform (Meso Scale Diagnostics).
Plasma alanine transaminase (ALT) at termination (U/L). Values expressed as mean of n=11-14+SEM.

DIO-NASH mice [4] = experiment: Plasma aspartate transaminase (AST) at termination; details: group mean
Description: as §1, §2
Plasma aspartate transaminase (AST) at termination (U/L). Values expressed as mean of n=11-14+SEM.

DIO-NASH mice [5] = experiment: NAFLD Activity Score (steatosis, lobular inflammation, ballooning), pre- to post-biopsy histopathological scoring; details: for Delta change in NAFLD activity score from pre- to post biopsy: group mean; for NAFLD activity score (NAS), effect in words: 12 weeks of treatment, compared to NASH vehicle+vehicle, summary of data
Description: Three weeks prior to study start, a pre-biopsy was performed to confirm NASH and for study inclusion of NASH-affected mice only. Briefly, mice were anesthetized with isoflurane (2-3%) in 100% oxygen. A small abdominal incision was made in the midline and the left lateral lobe of the liver exposed. A cone shaped wedge of liver tissue (approximately 50 mg) was excised from the distal portion of the lobe and fixated in 10% neutral buffered formalin (4% formaldehyde) for histopathological analyses. The cut surface of the liver was instantly electro-coagulated using bipolar coagulation (ERBE VIO 100 electrosurgical unit). The liver was returned to the abdominal cavity, the abdominal wall sutured, and the skin closed with staplers. For post-operative recovery, mice received carprofen (5 mg/ml-0.01 ml/10 g) administered subcutaneously on the day of operation and on post-operation day 1 and 2.
(§3) For Hematoxylin & Eosin (HE) staining, slides were incubated in Mayer's Hematoxylin, washed in tap water, stained in Eosin Y solution, […], mounted with Pertex and allowed to dry before scanning.
For scoring of NAFLD Activity Score (NAS) and fibrosis stage, HE and Sirius red stained liver sections, respectively, were scored by a histopathology specialist as outlined in Table 10 using the clinical criteria outlined by Kleiner et al. (2005). Total NAS score represents the sum of scores for steatosis, lobular inflammation, and ballooning degeneration scores, and ranges from 0-8.
For steatosis score, percentage refers to percentage of hepatocytes affected by steatosis as evaluated on low to medium power examination.
For lobular inflammation, inflammation is evaluated by counting the number of inflammatory foci per field using a 200× magnification (min. 5 fields per animal). A focus is defined as a cluster, not a row, of >3 inflammatory cells. Acidophil bodies are not included in this assessment, nor is portal inflammation.
For hepatocellular ballooning degeneration, degenerated hepatocytes with a cleared cytoplasm, enlargement, swelling, rounding and reticulated cytoplasm were identified.
Delta change in NAFLD activity score from pre-to post biopsy. Values expressed as mean of n=12-14+SEM.

DIO-NASH mice [6] = experiment: Liver steatosis (liver lipid) quantified by morphometry on HE slides; details: terminal, group mean
Description: as §3
Quantitative assessment of steatosis is evaluated as follows. Steatosis is quantified on H&E stained slides by image analysis using the Visiomorph software (Visiopharm, Denmark). Visiomorph protocols are designed to analyze the virtual slides in two steps: 1. Crude detection of tissue at low magnification (1× objective). 2. Detection of steatosis (pink) and tissue (blue) at high magnification (20× objective). The quantitative estimate of steatosis is calculated as an area fraction (AF) according to the following formula:
Terminal liver steatosis (i.e. liver lipid) was quantified by morphometry. Relative liver steatosis is denoted in % fractional area. Values expressed as mean of n=12-14+SEM.
Total liver steatosis is denoted in milligrams (% fractional area multiplied with liver weight). Values expressed as mean of n=12-14+SEM.

[7] = DIO-NASH mice, CHS-131 High 30 mg/kg, empagliflozin 10 mg/kg, elafibranor 30 mg/kg PO, liraglutide 0.4 mg/kg SC, QD
[8] = CHS-131 High dose (alone or combined)
[9] = DIO-NASH mice, compared to DIO mice administered vehicle only
[10] = DIO-NASH mice, CHS-131 Low 10 mg/kg PO QD
[11] = DIO-NASH mice, 12 weeks of treatment, summary of data
[12] = DIO-NASH mice, compared to vehicle only, non-significant

CSc1ccc(C(=O)/C=C/c2cc(C)c(OC(C)(C)C(=O)O)c(C)c2)cc1 [Elafibranor, reference compound]
Absolute fat tissue mass at week 11 (DIO-NASH mice [1]; [7]): 3.73 g | Absolute free water mass at week 11 (DIO-NASH mice [1]; [7]): 0.0923 g | MRI body weight at week 11 (DIO-NASH mice [1]; [7]): 32.5 g | Relative fat tissue mass at week 11 (DIO-NASH mice [1]; [7]): 11.3 % of body weight | Relative lean tissue mass at week 11 (DIO-NASH mice [1]; [7]): 52.6 % of body weight | Relative free water mass (% of body weight) (DIO-NASH mice [1]; [8]): 0.292 % of body weight | Area under the curve 0-180 min IPITT (blood glucose) (DIO-NASH mice [2]; [8]): 757 | Plasma alanine transaminase (ALT) at termination (DIO-NASH mice [3]; [8]): 144 U/L | Plasma aspartate transaminase (AST) at termination (DIO-NASH mice [4]; [8]): 205 U/L | Delta change in NAFLD activity score from pre- to post biopsy (DIO-NASH mice [5]; [8]): −2.00 | Relative liver steatosis (liver lipid) by morphometry (DIO-NASH mice [6]; [8]): 7.21 % fractional area | Total liver steatosis (% fractional area multiplied with liver weight) (DIO-NASH mice [6]; [8]): 322 milligrams

OC[C@H]1O[C@@H](c2ccc(Cl)c(Cc3ccc(O[C@H]4CCOC4)cc3)c2)[C@H](O)[C@@H](O)[C@@H]1O [Empagliflozin, reference compound]
Absolute fat tissue mass at week 11 (DIO-NASH mice [1]; [7]): 7.81 g | Absolute free water mass at week 11 (DIO-NASH mice [1]; [7]): 0.182 g | MRI body weight at week 11 (DIO-NASH mice [1]; [7]): 40.1 g | Relative fat tissue mass at week 11 (DIO-NASH mice [1]; [7]): 19.4 % of body weight | Relative lean tissue mass at week 11 (DIO-NASH mice [1]; [7]): 47.1 % of body weight | Relative free water mass (% of body weight) (DIO-NASH mice [1]; [8]): 0.458 % of body weight | Area under the curve 0-180 min IPITT (blood glucose) (DIO-NASH mice [2]; [8]): 723 | Plasma alanine transaminase (ALT) at termination (DIO-NASH mice [3]; [8]): 216 U/L | Plasma aspartate transaminase (AST) at termination (DIO-NASH mice [4]; [8]): 230 U/L | NAFLD activity score (NAS), effect in words (DIO-NASH mice [5]; DIO-NASH mice): positive trend for improvement | Delta change in NAFLD activity score from pre- to post biopsy (DIO-NASH mice [5]; [8]): −0.31 | Relative liver steatosis (liver lipid) by morphometry (DIO-NASH mice [6]; [8]): 27.2 % fractional area | Total liver steatosis (% fractional area multiplied with liver weight) (DIO-NASH mice [6]; [8]): 923 milligrams

O=S(=O)(Nc1cc(Cl)c(Oc2cnc3ccccc3c2)c(Cl)c1)c1ccc(Cl)cc1Cl [CHS-131]
Fat tissue mass (fat mass), effect in words (DIO-NASH mice [1]; [9]): reduced significantly | Free water mass, effect in words (DIO-NASH mice [1]; [9]): remained stable | Relative fat tissue mass, effect in words (DIO-NASH mice [1]; [9]): reduced | Reduction of % fat mass as % of baseline body weight (DIO-NASH mice [1]; DIO-NASH mice, compared to vehicle alone, CHS-131 dose not stated): 20% | Absolute fat tissue mass at week 11 (DIO-NASH mice [1]; [7]): 6.9 g | Absolute free water mass at week 11 (DIO-NASH mice [1]; [7]): 0.0946 g | MRI body weight at week 11 (DIO-NASH mice [1]; [7]): 38.2 g | Relative fat tissue mass at week 11 (DIO-NASH mice [1]; [7]): 17.8 % of body weight | Relative lean tissue mass at week 11 (DIO-NASH mice [1]; [7]): 48.1 % of body weight | Absolute fat tissue mass at week 11 (DIO-NASH mice [1]; [10]): 7.07 g | Absolute free water mass at week 11 (DIO-NASH mice [1]; [10]): 0.165 g | MRI body weight at week 11 (DIO-NASH mice [1]; [10]): 38.3 g | Relative fat tissue mass at week 11 (DIO-NASH mice [1]; [10]): 18.4 % of body weight | Relative lean tissue mass at week 11 (DIO-NASH mice [1]; [10]): 48.5 % of body weight | Relative free water mass (% of body weight) (DIO-NASH mice [1]; [8]): 0.249 % of body weight | Relative free water mass (% of body weight) (DIO-NASH mice [1]; CHS-131 Low dose): 0.429 % of body weight | Insulin sensitization, effect in words (DIO-NASH mice [2]; [11]): significant improvement | Decrease of insulin resistance (DIO-NASH mice [2]; DIO-NASH mice, compared to DIO mice administered vehicle only, significant, not in a dose response manner): 15% | Area under the curve 0-180 min IPITT (blood glucose) (DIO-NASH mice [2]; [8]): 767 | Area under the curve 0-180 min IPITT (blood glucose) (DIO-NASH mice [2]; CHS-131 Low dose): 758 | Plasma ALT, effect in words (DIO-NASH mice [3]; [11]): reduced | Decrease of plasma alanine aminotransferase (ALT) (DIO-NASH mice [3]; DIO-NASH mice, compared to DIO mice administered vehicle only (placebo)): 30% | Plasma alanine transaminase (ALT) at termination (DIO-NASH mice [3]; [8]): 140 U/L | Plasma alanine transaminase (ALT) at termination (DIO-NASH mice [3]; CHS-131 Low dose): 163 U/L | Plasma aspartate transaminase (AST) at termination (DIO-NASH mice [4]; [8]): 166 U/L | Plasma aspartate transaminase (AST) at termination (DIO-NASH mice [4]; CHS-131 Low dose): 189 U/L | NAFLD activity score (NAS), effect in words (DIO-NASH mice [5]; DIO-NASH mice): reduced NAS; also recorded: significant improvement | Improvement of average NAFLD activity score (NAS) post-baseline (DIO-NASH mice [5]; DIO-NASH mice, CHS-131 monotherapy, significant, on average): more than 1 unit | Improvement of ballooning (DIO-NASH mice [5]; [12]): ~10% | Improvement of steatosis (DIO-NASH mice [5]; [12]): approximately 30% | Improvement of lobular inflammation (DIO-NASH mice [5]; DIO-NASH mice, compared to vehicle only, non-significant (p=0.07)): 50% | NAFLD score: mice with improvement (DIO-NASH mice [5]; DIO-NASH mice, post- vs pre-study biopsy, significant): 7/13 | Delta change in NAFLD activity score from pre- to post biopsy (DIO-NASH mice [5]; [8]): −0.77 | Delta change in NAFLD activity score from pre- to post biopsy (DIO-NASH mice [5]; CHS-131 Low dose): −0.23 | Relative liver steatosis (liver lipid) by morphometry (DIO-NASH mice [6]; [8]): 23.1 % fractional area | Total liver steatosis (% fractional area multiplied with liver weight) (DIO-NASH mice [6]; [8]): 758 milligrams | Relative liver steatosis (liver lipid) by morphometry (DIO-NASH mice [6]; CHS-131 Low dose): 26.4 % fractional area | Total liver steatosis (% fractional area multiplied with liver weight) (DIO-NASH mice [6]; CHS-131 Low dose): 826 milligrams

Reference: US20220143003A1, “COMPOSITIONS AND METHODS TO TREAT NON-ALCOHOLIC FATTY LIVER DISEASES (NAFLD)” (Coherus Biosciences, Inc., priority 2018, published 2022)
